According to US20120052130A1, “GPR 119 MODULATORS” (Pfizer Inc., priority 2009, published 2012):

Columns and labels:
human GPR119 [1] = molecular target: T1, human GPR119 (Homo sapiens, UniProt Q8TDV5); assay: HTRF cAMP cell-based GPR119 agonist assay (hGPR119 HEK-CRE beta-lactamase cells); design: host or cells: hGPR119-HEK293-CRE-beta-lactamase cells; settings: percent of maximal activity relative to standard GPR119 agonist (WO2005121121) at 10 micromolar
T1 sequence (Q8TDV5 1-335): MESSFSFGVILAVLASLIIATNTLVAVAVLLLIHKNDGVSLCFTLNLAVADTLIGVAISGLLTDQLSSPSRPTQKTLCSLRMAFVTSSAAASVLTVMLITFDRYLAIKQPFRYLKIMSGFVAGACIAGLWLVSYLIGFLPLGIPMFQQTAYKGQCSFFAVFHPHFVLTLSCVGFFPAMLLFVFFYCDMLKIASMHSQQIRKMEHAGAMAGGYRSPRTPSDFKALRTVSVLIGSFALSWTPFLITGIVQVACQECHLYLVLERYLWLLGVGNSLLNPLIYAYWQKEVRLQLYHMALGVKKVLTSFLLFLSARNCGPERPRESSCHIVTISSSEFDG
Method: GPR119 agonist activity was also determined with a cell-based assay utilizing an HTRF (Homogeneous Time-Resolved Fluorescence) cAMP detection kit (cAMP dynamic 2 Assay Kit; Cis Bio cat #62AM4PEC) that measures cAMP levels in the cell. The method is a competitive immunoassay between native cAMP produced by the cells and the cAMP labeled with the dye d2. The tracer binding is visualized by a Mab anti-cAMP labeled with Cryptate. The specific signal (i.e. energy transfer) is inversely proportional to the concentration of cAMP in either standard or sample.
Specifically, hGPR119HEK-CRE beta-lactamase cells (Invitrogen 2.5×10^7/mL; the same cell line used in the beta-lactamase assay described above) are removed from cryopreservation and diluted in growth medium (Dulbecco's modified Eagle medium high glucose (DMEM; Gibco Cat #11995-065), 1% charcoal dextran treated fetal bovine serum (CD serum; HyClone Cat # SH30068.03), 1×MEM Nonessential amino acids (Gibco Cat #15630-080) and 25 mM HEPES pH 7.0 (Gibco Cat #15630-080)). The cell concentration was adjusted to 1.5×10^5 cells/mL and 30 mLs of this suspension was added to a T-175 flask and incubated at 37 degrees Celsius in a humidified environment in 5% carbon dioxide. […]
Varying concentrations of each compound to be tested were diluted in assay buffer containing 3-isobutyl-1-methylxanthin (IBMX; Sigma cat #15879) and added to the assay plate wells in a volume of 2 microL (final IBMX concentration was 400 microM and final DMSO concentration was 0.58%). […] The plates were then incubated at room temperature and after 60 minutes, changes in the HTRF signal were read with an Envision 2104 multilabel plate reader using excitation of 330 nm and emissions of 615 and 665 nm. Raw data were converted to nM cAMP by interpolation from a cAMP standard curve (as described in the manufacturer's assay protocol) and EC50 determinations were made from an agonist-response curves analyzed with a curve fitting program using a 4-paramter logistic dose response equation.

human GPR119 [2] = molecular target: T1, human GPR119; assay: β-lactamase reporter functional assay for GPR119 agonists (hGPR119 HEK293-CRE beta-lactamase cells); assay type: cell-based; design: host or cells: hGPR119-HEK293-CRE-beta-lactamase cells; Emax: dose or concentration left out as unconfirmed; settings: percent of maximal activity relative to standard GPR119 agonist (WO2005121121) at 10 micromolar; read-out: Human B-lactamase Intrinsic Activity*
Method: The assay for GPR119 agonists utilizes a cell-based (hGPR119HEK293-CRE beta-lactamase) reporter construct where agonist activation of human GPR119 is coupled to beta-lactamase production via a cyclic AMP response element (CRE). GPR119 activity is then measured utilizing a FRET-enabled beta-lactamase substrate, CCF4-AM (Live Blazer FRET-B/G Loading kit, Invitrogen cat #K1027). […] Fluorescence was measured on an EnVision fluorimetric plate reader, excitation 405 nm, emission 460 nm/535 nm. EC50 determinations were made from agonist-response curves analyzed with a curve fitting program using a 4-parameter logistic dose-response equation.

Row | Human cAMP Intrinsic Activity* (human GPR119 [1]) [%] | Emax (human GPR119 [2]) [%] | Compound
1 | 107 |  | CC(C)OC(=O)N1CCC(Oc2cc(N3CCc4cc(S(C)(=O)=O)ccc43)ncn2)CC1 [Example 3, Isopropyl 4-({6-[5-(methylsulfonyl)-2,3-dihydro-1H-indol-1-yl]pyrimidin-4-yl}oxy)piperidine-1-carboxylate]
2 |  | 109 | CC(C)OC(=O)N1C[C@H]2COC[C@@H](C1)[C@@H]2Oc1cc(N2CCc3cc(S(C)(=O)=O)ccc32)ncn1 [Example 2, Isopropyl 9-syn-({6-[5-(methylsulfonyl)-2,3-dihydro-1H-indol-1-yl]pyrimidin-4-yl}oxy)-3-oxa-7-azabicyclo[3.3.1]nonane-7-carboxylate]
